From US20220323390A1, “DIETARY SUPPLEMENT TO PROMOTE GUT HEALTH” (TERRAGENICS NUTRITION, INC., priority 2019, published 2022) come the findings set out here.

Common to all, as to type: cell-based, human
One experiment has as its system mucin-3. As to the kind of experiment: qPCR gene expression of mucin-3 in Caco-2/HT29-MTX co-culture. Conditions: 48 h; compared to the TNFα/IFNγ control. As for the experimental part:
(§1) Caco-2/HT29-MTX monolayers were cultured for 14 days, with three medium changes/week, until a functional cell monolayer with a transepithelial electrical resistance (TEER) was obtained. Cells were maintained in Dulbecco's Modified Eagle Medium (DMEM) containing glucose and glutamine and supplemented with HEPES and 20% (v/v) heat-inactivated (HI) fetal bovine serum (FBS). Before treatment, the TEER of the Caco-2/HT29-MTX monolayers was measured (0 h time point). The TEER of an empty insert was subtracted from all readings to account for the residual electrical resistance of an insert. The apical compartment (containing the Caco-2/HT29-MTX cells) was filled with sterile-filtered (0.22 μm) colonic batch suspensions. […] Cells were treated for 48 h and the TEER was measured at 24 h (=24 h time point) and 48 h (=48 h time point). […]
(§2) After 48 h, cells were lysed in RNA lysis buffer, centrifuged and the […] collected. qPCR is performed for tight junction genes (claudin-1, -2, -3 and -4, and occludin) and mucin genes (mucin 3); 2 housekeeping genes were Included. […] Mucins can be measured as disclosed for example in Leteutre, E. et al, Biology of the Cell 96 (2004) 145-151. Mucin turnover can be assessed as described for example in Schneider, H. et al, Nature Scientific Reports | (2018) 8:5760 | DOI:10.1038/s41598-018-24148-x. […]
For orientation: Real-time PCR tracks product formation cycle by cycle.

The test system of a further experiment is claudin-4. The experiment is described as follows: qPCR gene expression of claudin-4 in Caco-2/HT29-MTX co-culture. Conditions: 48 h; compared to the TNFα/IFNγ control. As for the experimental part:
as §1, §2

Another experiment concerns claudin-2. As to the kind of experiment: qPCR gene expression of claudin-2 in Caco-2/HT29-MTX co-culture. To be noted: 48 h; compared to the TNFα/IFNγ control. As for the experimental part: as §1, §2
The subject of another experiment is claudin-1. The experiment is described as follows: qPCR gene expression of claudin-1 in Caco-2/HT29-MTX co-culture. Conditions: 48 h; compared to the TNFα/IFNγ control. As for the experimental part: as §1, §2
A further experiment relates to occludin. As to the kind of experiment: qPCR gene expression of occludin in Caco-2/HT29-MTX co-culture. Conditions: 48 h; compared to the TNFα/IFNγ control. As to the method:
as §1, §2

Experiment [1] has as its system Caco-2/HT29-MTX co-cultures. The experiment is described as follows: Transepithelial electrical resistance (TEER) of TNFα/IFNγ-treated co-cultures given colonic batch samples. Conditions: TNFα/IFNγ stimulation. From the text: Caco-2, when seeded on suitable supports, spontaneously differentiate Into mature enterocyte-like cells, characterized by polarization, presence of villi, formation of domes, presence of tight junctions and vectorial transport and expression of apical brush-border enzymes (reviewed by Sambuy, Y., et al. (2005) Cell Biology and Toxicology. 21: 1-26). The mucus layer is mimicked by co-culturing Caco-2 cells with HT29-MTX cells, a mucin producing human cell line. This model is considered a useful in vitro intestinal model.
Barrier function was evaluated by measuring TEER and expression of tight junction and mucin genes in the co-culture model using TNF alpha/IFN gamma as an inflammatory insult. Inulin and sodium butyrate were used as positive controls. The test products were administered at three different concentrations. […]
Caco-2/HT29-MTX monolayers were cultured for 14 days, with three medium changes/week, until a functional cell monolayer with a transepithelial electrical resistance (TEER) was obtained. […] Before treatment, the TEER of the Caco-2/HT29-MTX monolayers was measured (0 h time point). The TEER of an empty insert was subtracted from all readings to account for the residual electrical resistance of an insert. […] Cells were treated for 48 h and the TEER was measured at 24 h (=24 h time point) and 48 h (=48 h time point). […]
TEER was measured again at 24 h and 48 h of incubation. […]

The next experiment relates to claudin-3. The experiment is described as follows: qPCR gene expression of claudin-3 in Caco-2/HT29-MTX co-culture. To be noted: 48 h; compared to the TNFα/IFNγ control. As for the experimental part:
as §1, §2

Regarding `CCCC(=O)[O-].[Na+]` [Sodium butyrate], in the experiment on mucin-3, the “expression of mucin-3” value is listed as “strongly increased the expression”. In addition, in the experiment with claudin-4, the “expression of claudin-4” value is listed as “increased the expression”. For the same compound, the “expression of claudin-2” value with claudin-2 is “decreased the expression”. The “expression of claudin-1” value with claudin-1 is listed as “No effect”. Moreover, the expression of occludin result in the experiment with occludin was “increased the expression”. In experiment [1] (24 h of incubation), the “decrease in TEER” value was “approximately 80%”. Further, the “TEER relative to initial value” in experiment [1] (48 h of incubation) is on record as “increased the TEER above its initial value”. Further, the “expression of claudin-3” value in the experiment with claudin-3 was “increased the expression”.
